Data as given in patent publication US7429396B2, “Antifungal composition, its fungicidal effect on pathogenic dermatophytes, and process for inhibiting growth of fungi” (Bio-Botanica, Inc., priority 2003, dated 2008).
Where “and” joins values, the source holds several entries; their conditions need not be identical. Equal entries are not always repeated.

Legend:
M. smegmatis ATCC 14468 = assay: Agar Dilution susceptibility method (Example 5); type: cell-based, Mycobacterium smegmatis
Method: (§1) The Agar Dilution susceptibility method was used to test the effectiveness of the antimicrobial composition of Example 1. The organisms used were S. aureus ATCC 29213, E. coli ATCC 25922, S. typhimurium ATCC 14028, K. pneumoniae ATCC 10031, P. aeruginosa ATCC 27853, C. albicans ATCC 10231, and M. smegmatis ATCC 14468. The organisms were maintained on Tryptic Soy Agar (TSA) slants. For each week, the organisms were cultured in 10 ml of Tryptic Soy Broth (TSB). After incubation at 37° C. for 17 hours (48 hours for M. smegmatis), the organism suspensions were diluted with 10 ml of sterile saline as shown in Table 4. The mold Aspergillus niger was sustained on a Sabouraud Dextrose Agar slant. The sample was then cultured in 10 ml of Tryptic Soy Broth and incubated for 7 days at 22° C. The mold was then diluted in 0.1% Tween 80 in saline. The diluted bacteria and yeast organisms were then inoculated onto the prepared sample plates with a 1 μl loop. The mold Aspergillus niger was added to prepared sample tubes with a 100 μl pipette.
(§2) Phenyloxyethanol (PE), phenylethyl alcohol (PEA) and methyl/propylparabens (MP) in a ratio of 5:4 were initially screened at their commonly recommended effective concentrations of 0.3% v/v (3 μl/ml); 1% v/v (10 μl/ml); and 0.18% w/v (1 mg methyl and 0.8 mg propylparaben/ml), respectively. The antimicrobial agent was used at an initial concentration of 0.15% v/v (1.5 μl/ml).
(§3) The sample plates for the bacteria and yeast were prepared as follows: • Prepare 10 ml tubes of TSA and allow to cool to 50° C., • Add the calculated amount of the preservative or antimicrobial agent to 100 μl dimethylsulfoxide (DMSO) to achieve the specified concentration per ml TSA when 100 μl of the DMSO solution are added to a test tube containing 10 ml of TSA, • Vortex to homogenize the mixture in TSA, • Pour TSA and the preservative or antimicrobial agent into a properly labeled Petri dish, • Allow to cool overnight at room temperature.
(§4) The prepared sample plates were divided into seven sections and the plates labeled according to the preservative or antimicrobial agent. Each section was labeled according to the microorganism to be applied to each section. The diluted organism suspensions were inoculated onto their appropriate section with a 1 μl loop, streaking radially from the center to the outer edge of the plate. A positive control plate was prepared without a preservative or antimicrobial agent of Example 1. The plates were then incubated at 37° C. for 48 hours, recording the results at 24 and 48 hours.
(§5) The results for the bacteria and yeast were scored in relation to the growth present on the positive control plate. Growth (G) was noted when there was full growth visible and the organism was not affected. […]

A. niger ATCC 16404 = assay: Broth tube susceptibility test of the mold (Example 5); type: cell-based, Aspergillus niger
Method: as §1
The sample for the mold Aspergillus niger was prepared as follows: • Prepare 10 ml tubes of Tryptic Soy Broth (TSB), • Add the calculated amount of the sample to 100 μl dimethylsulfoxide (DMSO) to achieve the specified concentration per ml TSB. Then 100 μl of the DMSO is added to a test tube containing 10 ml of TSB, • Vortex to homogenize the mixture in TSB, • Add 100 μl of Aspergillus niger suspension to a tube of TSB not inoculated with any sample as a positive control.
The prepared sample tubes were inoculated with 100 μl of the mold Aspergillus niger suspension to produce a final mold spore concentration in each sample tube of 1×10^4 to 1×10^5 spores/ml. The prepared sample tubes of TSB were incubated at 37° C. for 5 days with the results being recorded at 3 and 5 days.
The results for Aspergillus niger were scored in relation to the growth present in the positive control tube. The growth (G) was noted when there was full growth visible as determined by the tube appearing cloudy to the same extent as the positive control tube. Partial activity (P) was recorded when the sample tube of TSB was less turbid than the control tube. No growth (I) was recorded when there was total inhibition and broth in the tube appeared clear.
(§6) In this example and the tables, the amount of the antimicrobial agent is expressed in terms of the volume of antimicrobial sample. The concentration of the antimicrobial agent of 1 μl/ml corresponds to 1 mg (milligram)/ml of the antimicrobial agent. The MIC obtained was confirmed by three consecutive results. DMSO was used to solubilize the test samples and help to diffuse the lipophilic ingredients into the agar. DMSO was used at a concentration not exceeding 1%.

C. albicans ATCC 10231 = assay: Agar Dilution susceptibility method (Example 5); type: cell-based, Candida albicans
Method: as §1, §2, §3, §4, §5

P. aeruginosa ATCC 27853 = assay: Agar Dilution susceptibility method (Example 5); type: cell-based, Pseudomonas aeruginosa
Method: as §1, §2
as §3, with “temperature. […]” for “temperature.”
(§7) The results for the bacteria and yeast were scored in relation to the growth present on the positive control plate. […]

[1] = tested on: S. typhimurium ATCC 14028; assay: Agar Dilution susceptibility method (Example 5); type: cell-based, Salmonella typhimurium
Method: as §1, §2, §3, §4
Growth (G) was noted when there was full growth visible and the organism was not affected. […]
In this example and the tables, the amount of the antimicrobial agent is expressed in terms of the volume of antimicrobial sample. […]

K. pneumoniae ATCC 10031 = assay: Agar Dilution susceptibility method (Example 5); type: cell-based, Klebsiella pneumoniae
Method: as §1, §2, §3, §4, §5, §6

[2] = tested on: all microorganisms tested; assay: Agar/broth dilution, inhibition of all microorganisms tested (Example 5); type: cell-based
Method: as §1, with “The sample was then cultured in 10 ml of Tryptic Soy Broth and incubated for 7 days at 22° C. The mold was then diluted in 0.1% Tween 80 in saline. The diluted bacteria and yeast organisms were then inoculated onto the prepared sample plates with a 1 μl loop. The mold Aspergillus niger was added to prepared sample tubes with a 100 μl pipette.” left out
as §3, with “temperature. […]” for “temperature.”
as §7

OCCc1ccccc1 [Phenylethyl Alcohol]
I: growth score (M. smegmatis ATCC 14468; 3.0 μl/ml) | growth score (M. smegmatis ATCC 14468; 5.0 μl/ml) | growth score (M. smegmatis ATCC 14468; 6.0 μl/ml) | growth score (A. niger ATCC 16404; 3.0 μl/ml) | growth score (A. niger ATCC 16404; 5.0 μl/ml) | growth score (A. niger ATCC 16404; 6.0 μl/ml) | growth score (C. albicans ATCC 10231; 3.0 μl/ml) | growth score (C. albicans ATCC 10231; 5.0 μl/ml) | growth score (C. albicans ATCC 10231; 6.0 μl/ml) | growth score (P. aeruginosa ATCC 27853; 5.0 μl/ml) | growth score (P. aeruginosa ATCC 27853; 6.0 μl/ml) | growth score ([1]; 3.0 μl/ml) | growth score ([1]; 5.0 μl/ml) | growth score ([1]; 6.0 μl/ml) | growth score (K. pneumoniae ATCC 10031; 1.5 μl/ml) | growth score (K. pneumoniae ATCC 10031; 3.0 μl/ml) | growth score (K. pneumoniae ATCC 10031; 5.0 μl/ml) | growth score (K. pneumoniae ATCC 10031; 6.0 μl/ml)
2.5 μl/ml and 3.0 μl/ml: Minimum Inhibitory Concentration (MIC) (sample/ml of agar or broth) (C. albicans ATCC 10231)
5.0 μl/ml: Minimum Inhibitory Concentration (MIC) (sample/ml of agar or broth) (P. aeruginosa ATCC 27853) | Minimum Inhibitory Concentration (MIC) (sample/ml of agar or broth) [1] | Minimum Inhibitory Concentration (MIC) (sample/ml of agar or broth) (K. pneumoniae ATCC 10031)
2.5 μl/ml: Minimum Inhibitory Concentration (MIC) (sample/ml of agar or broth) (M. smegmatis ATCC 14468) | Minimum Inhibitory Concentration (MIC) (sample/ml of agar or broth) (A. niger ATCC 16404)
6.0 μl/ml: MIC capable of inhibiting all the tested organisms [2]
